Experimental data reported in ChEMBL document CHEMBL3044888, “Fungicidal activity of indole derivatives against some plant pathogenic fungi” (J Pestic Sci, 2010).
Values after ≈ are worked out from the molar mass of the structure shown.

How the values were obtained:
[1] = test system: Globisporangium debaryanum; assay: In vivo effect on peroxidase activity in Pythium debaryanum assessed as DNA content at 1 times of IC50 concentration (reference value: 31 +/- 0.8 mg/l); format: functional
[2] = test system: Rhizoctonia solani; assay: In vivo effect on peroxidase activity in Rhizoctonia solani assessed as reduced sugar content per gram of dry hyphal at 0.1 times of IC50 concentration (reference value: 17.3 +/- 1 mg/g of dry weight); format: functional
[3] = test system: Fusarium culmorum; assay: Inhibition of peroxidase activity in Fusarium culmorum at 0.25 times of IC50 concentration
[4] = test system: Macrophomina phaseolina; assay: In vivo effect on peroxidase activity in Macrophomina phaseoli assessed as RNA content at 0.5 times of IC50 concentration (reference value: 16.1 +/- 0.4 mg/l); format: functional
[5] = test system: Fusarium culmorum; assay: In vivo effect on peroxidase activity in Fusarium culmorum assessed as DNA content at 0.5 times of IC50 concentration (reference value: 49.5 +/- 1.6 mg/l); format: functional
[6] = test system: Macrophomina phaseolina; assay: In vivo effect on peroxidase activity in Macrophomina phaseoli assessed as RNA content at 0.25 times of IC50 concentration (reference value: 16.1 +/- 0.4 mg/l); format: functional
[7] = test system: Globisporangium debaryanum; assay: In vivo effect on peroxidase activity in Pythium debaryanum assessed as RNA content at 0.5 times of IC50 concentration (reference value: 32.2 +/- 0.7 mg/l); format: functional
[8] = Inhibition of polyphenoloxidase activity in Fusarium culmorum
[9] = test system: Macrophomina phaseolina; assay: In vivo effect on peroxidase activity in Macrophomina phaseoli assessed as total soluble sugar content per gram of dry hyphal at 0.1 times of IC50 concentration (reference value: 19.3 +/- 0.7 mg/g of dry weight); format: functional
[10] = Inhibition of polyphenoloxidase activity in Macrophomina phaseoli; design: species or system Macrophomina phaseolina
[11] = test system: Globisporangium debaryanum; assay: In vivo effect on peroxidase activity in Pythium debaryanum assessed as DNA content at 0.5 times of IC50 concentration (reference value: 31 +/- 0.8 mg/l); format: functional
[12] = test system: Fusarium culmorum; assay: Inhibition of peroxidase activity in Fusarium culmorum at 0.5 times of IC50 concentration
[13] = test system: Fusarium culmorum; assay: In vivo effect on peroxidase activity in Fusarium culmorum assessed as RNA content at 0.5 times of IC50 concentration (reference value: 51.5 +/- 1.5 mg/l); format: functional
[14] = test system: Rhizoctonia solani; assay: In vivo effect on peroxidase activity in Rhizoctonia solani assessed as RNA content at 0.1 times of IC50 concentration (reference value: 25 +/- 0.7 mg/l); format: functional
[15] = test system: Globisporangium debaryanum; assay: Inhibition of peroxidase activity in Pythium debaryanum at 0.5 times of IC50 concentration
[16] = test system: Macrophomina phaseolina; assay: Fungicidal activity against Macrophomina phaseoli assessed as inhibition of hyphal growth by radial growth test; format: functional, organism-based
[17] = test system: Rhizoctonia solani; assay: In vivo effect on peroxidase activity in Rhizoctonia solani assessed as reduced sugar content per gram of dry hyphal at 0.5 times of IC50 concentration (reference value: 17.3 +/- 1 mg/g of dry weight); format: functional
[18] = test system: Rhizoctonia solani; assay: In vivo effect on peroxidase activity in Rhizoctonia solani assessed as reduced sugar content per gram of dry hyphal at 0.25 times of IC50 concentration (reference value: 17.3 +/- 1 mg/g of dry weight); format: functional
[19] = test system: Rhizoctonia solani; assay: In vivo effect on peroxidase activity in Rhizoctonia solani assessed as total soluble sugar content per gram of dry hyphal at 0.1 times of IC50 concentration (reference value: 20.1 +/- 0.8 mg/g of dry weight); format: functional
[20] = test system: Rhizoctonia solani; assay: In vivo effect on peroxidase activity in Rhizoctonia solani assessed as RNA content at 1 times of IC50 concentration (reference value: 25 +/- 0.7 mg/l); format: functional
[21] = test system: Globisporangium debaryanum; assay: Inhibition of peroxidase activity in Pythium debaryanum at 0.1 times of IC50 concentration
[22] = test system: Macrophomina phaseolina; assay: In vivo effect on peroxidase activity in Macrophomina phaseoli assessed as DNA content at 0.5 times of IC50 concentration (reference value: 15.5 +/- 0.5 mg/l); format: functional
[23] = test system: Rhizoctonia solani; assay: In vivo effect on peroxidase activity in Rhizoctonia solani assessed as non-reducing sugar content per gram of dry hyphal at 0.25 times of IC50 concentration (reference value: 2.8 +/- 0.2 mg/g of dry weight); format: functional
[24] = test system: Globisporangium debaryanum; assay: In vivo effect on peroxidase activity in Pythium debaryanum assessed as RNA content at 0.1 times of IC50 concentration (reference value: 32.2 +/- 0.7 mg/l); format: functional
[25] = test system: Fusarium culmorum; assay: In vivo effect on peroxidase activity in Fusarium culmorum assessed as DNA content at 0.25 times of IC50 concentration (reference value: 49.5 +/- 1.6 mg/l); format: functional
[26] = test system: Rhizoctonia solani; assay: Fungicidal activity against Rhizoctonia solani assessed as inhibition of hyphal growth by radial growth test; format: functional, organism-based
[27] = test system: Macrophomina phaseolina; assay: In vivo effect on peroxidase activity in Macrophomina phaseoli assessed as non-reducing sugar content per gram of dry hyphal at 0.5 times of IC50 concentration (reference value: 12 +/- 0.8 mg/g of dry weight); format: functional
[28] = test system: Rhizoctonia solani; assay: In vivo effect on peroxidase activity in Rhizoctonia solani assessed as non-reducing sugar content per gram of dry hyphal at 1 times of IC50 concentration (reference value: 2.8 +/- 0.2 mg/g of dry weight); format: functional
[29] = test system: Macrophomina phaseolina; assay: In vivo effect on peroxidase activity in Macrophomina phaseoli assessed as DNA content at 0.1 times of IC50 concentration (reference value: 15.5 +/- 0.5 mg/l); format: functional
[30] = test system: Macrophomina phaseolina; assay: In vivo effect on peroxidase activity in Macrophomina phaseoli assessed as RNA content at 0.1 times of IC50 concentration (reference value: 16.1 +/- 0.4 mg/l); format: functional
[31] = test system: Rhizoctonia solani; assay: In vivo effect on peroxidase activity in Rhizoctonia solani assessed as reduced sugar content per gram of dry hyphal at 1 times of IC50 concentration (reference value: 17.3 +/- 1 mg/g of dry weight); format: functional
[32] = test system: Rhizoctonia solani; assay: In vivo effect on peroxidase activity in Rhizoctonia solani assessed as RNA content at 0.5 times of IC50 concentration (reference value: 25 +/- 0.7 mg/l); format: functional
[33] = test system: Macrophomina phaseolina; assay: In vivo effect on peroxidase activity in Macrophomina phaseoli assessed as reduced sugar content per gram of dry hyphal at 1 times of IC50 concentration (reference value: 7.3 +/- 0.5 mg/g of dry weight); format: functional
[34] = test system: Rhizoctonia solani; assay: In vivo effect on peroxidase activity in Rhizoctonia solani assessed as DNA content at 0.5 times of IC50 concentration (reference value: 24 +/- 0.7 mg/l); format: functional
[35] = test system: Rhizoctonia solani; assay: In vivo effect on peroxidase activity in Rhizoctonia solani assessed as DNA content at 2 times of IC50 concentration (reference value: 24 +/- 0.7 mg/l); format: functional
[36] = test system: Macrophomina phaseolina; assay: In vivo effect on peroxidase activity in Macrophomina phaseoli assessed as total soluble sugar content per gram of dry hyphal at 1 times of IC50 concentration (reference value: 19.3 +/- 0.7 mg/g of dry weight); format: functional
[37] = test system: Globisporangium debaryanum; assay: In vivo effect on peroxidase activity in Pythium debaryanum assessed as DNA content at 0.1 times of IC50 concentration (reference value: 31 +/- 0.8 mg/l); format: functional
[38] = test system: Globisporangium debaryanum; assay: Inhibition of peroxidase activity in Pythium debaryanum at 0.25 times of IC50 concentration

`c1ccc(-c2cc3ccccc3[nH]2)cc1` [2-PHENYL-1H-INDOLE] showed an Activity [1] of 29.4 mg/L, an Activity [2] of 44.3 mg and an inhibition [3] of 26.2%. The Activity [4] was 8.3 mg/L, the Activity [5] was 18 mg/L and the Activity [6] was 7.2 mg/L. For the same compound, the Activity [7] was 11.4 mg/L, the IC50 [8] was 87.6 µg/mL (≈ 453 µM) and the Activity [9] was 8.7 mg. For the same compound, the IC50 [10] was 117.1 µg/mL (≈ 606 µM), the Activity [11] was 10.9 mg/L and the inhibition [12] was 53.8%. For the same compound, the Activity [13] was 18.7 mg/L, the Activity [14] was 29.4 mg/L and the inhibition [15] was 0%. The IC50 [16] was 96 µg/mL (≈ 497 µM), the Activity [17] was 16 mg and the Activity [18] was 60.3 mg. The Activity [19] was 58.4 mg, the Activity [20] was 32.2 mg/L and the inhibition [21] was 19.3%. For the same compound, the Activity [22] was 8 mg/L, the Activity [23] was 11.4 mg and the Activity [24] was 32.1 mg/L. For the same compound, the Activity [25] was 23.7 mg/L, the IC50 [26] was 34.6 µg/mL (≈ 179 µM) and the Activity [27] was 1.4 mg. It also gave an Activity [28] of 2.2 mg, an Activity [29] of 6.4 mg/L and an Activity [30] of 6.7 mg/L. For the same compound, the Activity [31] was 7.7 mg, the Activity [32] was 30.8 mg/L and the Activity [33] was 5.8 mg. The Activity [34] was 29.6 mg/L, the Activity [35] was 27 mg/L and the Activity [36] was 7.1 mg. It also gave an Activity [37] of 30.9 mg/L and an inhibition [38] of 3.7%.

Work on `CC(=O)n1c(-c2ccccc2)cc2ccccc21` yielded an Activity [1] of 17.5 mg/L, an Activity [2] of 9.7 mg and an inhibition [3] of 23.7%. For the same compound, the Activity [4] was 8.6 mg/L, the Activity [5] was 28 mg/L and the Activity [6] was 10.6 mg/L. The Activity [7] was 11.8 mg/L, the IC50 [8] was 41.5 µg/mL (≈ 176 µM) and the Activity [9] was 4.2 mg. For the same compound, the IC50 [10] was 80.2 µg/mL (≈ 341 µM), the Activity [11] was 11.3 mg/L and the inhibition [12] was -7.9%. It also gave an Activity [13] of 29.2 mg/L, an Activity [14] of 23.6 mg/L and an inhibition [15] of 1.3%. For the same compound, the IC50 [16] was 93 µg/mL (≈ 395 µM), the Activity [17] was 5.6 mg and the Activity [18] was 9.6 mg. The Activity [19] was 12.2 mg, the Activity [20] was 32.6 mg/L and the inhibition [21] was 0%. The Activity [22] was 8.3 mg/L, the Activity [23] was 1.2 mg and the Activity [24] was 27 mg/L. The Activity [25] was 29.9 mg/L, the IC50 [26] was 37.5 µg/mL (≈ 159 µM) and the Activity [27] was 10.2 mg. The Activity [28] was 0.2 mg, the Activity [29] was 11.7 mg/L and the Activity [30] was 12.9 mg/L. It also gave an Activity [31] of 2.6 mg, an Activity [32] of 27.9 mg/L and an Activity [33] of 25.8 mg. The Activity [34] was 26.6 mg/L, the Activity [35] was 34.7 mg/L and the Activity [36] was 34.7 mg. It also gave an Activity [37] of 26 mg/L and an inhibition [38] of 3%.
